Reference: patent US20240158446A1, “CYCLIC COMPOUND HAVING SELECTIVE INHIBITORY ACTION ON KRAS OVER HRAS AND NRAS” (CHUGAI SEIYAKU KABUSHIKI KAISHA, priority 2021, published 2024)
Like-named read-outs stand apart in the source and are kept apart here.

Tests used:
[1] = biological target: GDP-bound NRAS wild-type protein (Homo sapiens, UniProt P01111); assay: Binding to NRAS by surface plasmon resonance (SPR), Single Cycle Kinetics; conditions: for NRAS/KRAS (ratio of KD value for NRAS to KD value for KRAS): SPR, GDP-bound NRAS wild-type protein vs GDP-bound KRAS wild-type protein
[2] = biological target: GDP-bound KRAS wild-type protein (Homo sapiens, UniProt P01116); assay: Binding to KRAS by surface plasmon resonance (SPR), Single Cycle Kinetics; conditions: GDP-bound KRAS wild-type protein, read-out: KRAS KD
[3] = biological target: GDP-bound HRAS wild-type protein (Homo sapiens, UniProt P01112); assay: Binding to HRAS by surface plasmon resonance (SPR), Single Cycle Kinetics; conditions: for HRAS/KRAS (ratio of KD value for HRAS to KD value for KRAS): SPR, GDP-bound HRAS wild-type protein vs GDP-bound KRAS wild-type protein
GDP-bound HRAS wild-type protein, sequence (P01112 whole entry): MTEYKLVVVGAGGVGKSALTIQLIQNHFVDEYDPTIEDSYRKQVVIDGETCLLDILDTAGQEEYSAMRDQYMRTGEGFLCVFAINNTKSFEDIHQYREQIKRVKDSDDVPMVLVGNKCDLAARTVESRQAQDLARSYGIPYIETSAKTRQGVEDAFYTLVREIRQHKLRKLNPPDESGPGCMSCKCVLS

GDP-bound KRAS wild-type protein, sequence (P01116 whole entry): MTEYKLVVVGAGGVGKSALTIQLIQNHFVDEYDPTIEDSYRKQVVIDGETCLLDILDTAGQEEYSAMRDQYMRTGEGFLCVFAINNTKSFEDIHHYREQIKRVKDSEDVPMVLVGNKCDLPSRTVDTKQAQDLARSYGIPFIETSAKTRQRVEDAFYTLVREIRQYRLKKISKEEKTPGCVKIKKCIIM
GDP-bound NRAS wild-type protein, sequence (P01111 whole entry): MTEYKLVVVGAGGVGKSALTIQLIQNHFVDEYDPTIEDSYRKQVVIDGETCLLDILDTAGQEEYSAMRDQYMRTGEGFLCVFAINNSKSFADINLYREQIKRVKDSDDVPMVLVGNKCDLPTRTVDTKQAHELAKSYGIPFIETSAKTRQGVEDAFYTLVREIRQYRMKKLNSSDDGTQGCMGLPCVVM

Row | SMILES | Kd ([2]; SPR, Single Cycle Kinetics) [nM] | NRAS/KRAS (ratio of KD value for NRAS to KD value for KRAS) [1] | HRAS/KRAS (ratio of KD value for HRAS to KD value for KRAS) [3] | NRAS/KRAS (ratio of KD value with respect to GDP-bound NRAS wild-type protein to KD value with respect to KRAS) ([1]; SPR KD ratio NRAS/KRAS, class symbols) | Kd ([2]; SPR Single Cycle Kinetics, 1:1 binding model) [nM] | HRAS/KRAS (ratio of KD value with respect to GDP-bound HRAS wild-type protein to KD value with respect to KRAS) ([3]; SPR KD ratio HRAS/KRAS, class symbols)
1 | CCO[C@@H]1C[C@H]2C(=O)N(C)C3(CCC3)C(=O)N(C)[C@@H](C(CC)CC)C(=O)N(C)[C@H](C(=O)N(C)C)CC(=O)N(C)[C@@H](COC)C(=O)N[C@@H]([C@@H](C)CC)C(=O)N(C)CC(=O)N(C)[C@H]3C/C=C\CCN(C3=O)[C@@H](CC3CCCCC3)C(=O)N(C)CC(=O)N[C@@H](CCc3ccc(C(F)(F)F)c(OC)c3)C(=O)N2C1 [PP2335] | 1.4 | A (a compound having 10 or more and less than 20 is denoted as A) | A (a compound having 10 or more and less than 20 is denoted as A) |  |  | 
2 | CCC[C@H]1C(=O)N[C@@H]([C@@H](C)CC)C(=O)N2CCC[C@H]2C(=O)N(C)[C@H]2C/C=C\CCN(C2=O)[C@@H](CC2CCCCC2)C(=O)N(C)CC(=O)N[C@@H](CCc2ccc(C(F)(F)F)c(OC)c2)C(=O)N2C[C@H](OCC)C[C@H]2C(=O)N(C)C2(CCC2)C(=O)N(C)[C@@H](C(CC)CC)C(=O)N(C)[C@H](C(=O)N(C)C)CC(=O)N1C [PP2341] | 3.6 | A (a compound having 10 or more and less than 20 is denoted as A) | A (a compound having 10 or more and less than 20 is denoted as A) |  |  | 
3 | CCC[C@H]1C(=O)N[C@@H]([C@@H](C)CC)C(=O)N2CCC[C@H]2C(=O)N(C)[C@H]2C/C=C\CCN(C2=O)[C@@H](CC2CCCCC2)C(=O)N(C)CC(=O)N[C@@H](CCc2ccc(C(F)(F)F)c(OC)c2)C(=O)N2C[C@H](OCC)C[C@H]2C(=O)N(C)C2(CCC2)C(=O)N(C)[C@@H](C2CCCC2)C(=O)N(C)[C@H](C(=O)N(C)C)CC(=O)N1C [PP2344] | 0.95 | A (a compound having 10 or more and less than 20 is denoted as A) | A (a compound having 10 or more and less than 20 is denoted as A) |  |  | 
4 | CCOC[C@H]1C(=O)N[C@@H]([C@@H](C)CC)C(=O)N(C)CC(=O)N(C)[C@H]2C/C=C\CCN(C2=O)[C@@H](CC2CCC(F)(F)CC2)C(=O)N(C)CC(=O)N[C@@H](CCc2ccc(C(F)(F)F)c(OC)c2)C(=O)N2C[C@H](OCC)C[C@H]2C(=O)N(C)C2(CCC2)C(=O)N(C)[C@@H](C(CC)CC)C(=O)N(C)[C@H](C(=O)N(C)C)CC(=O)N1C [PP2347] | 1.6 | A (a compound having 10 or more and less than 20 is denoted as A) | A (a compound having 10 or more and less than 20 is denoted as A) |  |  | 
5 | CCC[C@H]1C(=O)N[C@@H]([C@@H](C)CC)C(=O)N(C)CC(=O)N(C)[C@H]2C/C=C\CCN(C2=O)[C@@H](CC2CCC(F)(F)CC2)C(=O)N(C)CC(=O)N[C@@H](CCc2ccc(C(F)(F)F)c(OC)c2)C(=O)N2C[C@H](OCC)C[C@H]2C(=O)N(C)C2(CCC2)C(=O)N(C)[C@@H](C2CCCC2)C(=O)N(C)[C@H](C(=O)N(C)C)CC(=O)N1C [PP2348] | 0.34 | A (a compound having 10 or more and less than 20 is denoted as A) | A (a compound having 10 or more and less than 20 is denoted as A) |  |  | 
6 | CCC[C@H]1C(=O)N[C@@H]([C@@H](C)CC)C(=O)N(C2CC2)CC(=O)N(C)[C@H]2C/C=C\CCN(C2=O)[C@@H](CC2CCC(F)(F)CC2)C(=O)N(C)CC(=O)N[C@@H](CCc2ccc(C(F)(F)F)c(OC)c2)C(=O)N2C[C@H](OCC)C[C@H]2C(=O)N(C)C2(CCC2)C(=O)N(C)[C@@H](C2CCCC2)C(=O)N(C)[C@H](C(=O)N(C)C)CC(=O)N1C [PP2352] | 0.76 | A (a compound having 10 or more and less than 20 is denoted as A) | A (a compound having 10 or more and less than 20 is denoted as A) |  |  | 
7 | CCO[C@@H]1C[C@H]2C(=O)NC3(CC(C)(C)C3)C(=O)N(C)[C@@H](C3CCCC3)C(=O)N(C)[C@H](C(=O)N3CCCCC3)CC(=O)N(C)[C@H]3CCC/C=C/c4ccc(cc4)C[C@@H](C(=O)N(C)CC(=O)N[C@@H](CCc4cc(F)c(C(F)(F)F)c(F)c4)C(=O)N2C1)N1CC/C=C\C[C@@H](C1=O)N(C)C(=O)CN(C)C(=O)[C@H]([C@@H](C)CC)NC3=O [PP2573] |  |  |  | A (a compound having 10 or more and less than 20 is denoted as A) | 0.1 | A (a compound having 10 or more and less than 20 is denoted as A)

Continued by falling Kd ([2]; SPR, Single Cycle Kinetics), values first:

Row | Kd ([2]; SPR, Single Cycle Kinetics) [nM] | SMILES | NRAS/KRAS (ratio of KD value for NRAS to KD value for KRAS) [1] | HRAS/KRAS (ratio of KD value for HRAS to KD value for KRAS) [3] | NRAS/KRAS (ratio of KD value with respect to GDP-bound NRAS wild-type protein to KD value with respect to KRAS) ([1]; SPR KD ratio NRAS/KRAS, class symbols) | Kd ([2]; SPR Single Cycle Kinetics, 1:1 binding model) [nM] | HRAS/KRAS (ratio of KD value with respect to GDP-bound HRAS wild-type protein to KD value with respect to KRAS) ([3]; SPR KD ratio HRAS/KRAS, class symbols)
8 | 4.1 | CCC[C@H]1C(=O)N[C@@H]([C@@H](C)CC)C(=O)N2CCC[C@H]2C(=O)N(C)[C@H]2C/C=C\CCN(C2=O)[C@@H](CC2CCC(F)(F)CC2)C(=O)N(C)CC(=O)N[C@@H](CCc2ccc(C(F)(F)F)c(OC)c2)C(=O)N2C[C@H](OCC)C[C@H]2C(=O)N(C)C2(CCC2)C(=O)N(C)[C@@H](C(CC)CC)C(=O)N(C)[C@H](C(=O)N(C)C)CC(=O)N1C [PP2353] | A (a compound having 10 or more and less than 20 is denoted as A) | A (a compound having 10 or more and less than 20 is denoted as A) |  |  | 
9 | 3.8 | CCC[C@H]1C(=O)N[C@@H]([C@@H](C)CC)C(=O)N(C2CC2)CC(=O)N(C)[C@H]2C/C=C\CCN(C2=O)[C@@H](CC2CCC(F)(F)CC2)C(=O)N(C)CC(=O)N[C@@H](CCc2ccc(C(F)(F)F)c(OC)c2)C(=O)N2C[C@H](OCC)C[C@H]2C(=O)N(C)C2(CCC2)C(=O)N(C)[C@@H](C(CC)CC)C(=O)N(C)[C@H](C(=O)N(C)C)CC(=O)N1C [PP2349] | A (a compound having 10 or more and less than 20 is denoted as A) | A (a compound having 10 or more and less than 20 is denoted as A) |  |  | 
10 | 2.6 | CCO[C@@H]1C[C@H]2C(=O)N(C)C3(CCC3)C(=O)N(C)[C@@H](C(CC)CC)C(=O)N(C)[C@H](C(=O)N(C)C)CC(=O)N(C)[C@@H](COC)C(=O)N[C@@H]([C@@H](C)CC)C(=O)N(C3CC3)CC(=O)N(C)[C@H]3C/C=C\CCN(C3=O)[C@@H](CC3CCCCC3)C(=O)N(C)CC(=O)N[C@@H](CCc3ccc(C(F)(F)F)c(OC)c3)C(=O)N2C1 [PP2339] | A (a compound having 10 or more and less than 20 is denoted as A) | A (a compound having 10 or more and less than 20 is denoted as A) |  |  | 
11 | 1.7 | CCC[C@H]1C(=O)N[C@@H]([C@@H](C)CC)C(=O)N(C)CC(=O)N(C)[C@H]2C/C=C\CCN(C2=O)[C@@H](CC2CCC(F)(F)CC2)C(=O)N(C)CC(=O)N[C@@H](CCc2ccc(C(F)(F)F)c(OC)c2)C(=O)N2C[C@H](OCC)C[C@H]2C(=O)N(C)C2(CCC2)C(=O)N(C)[C@@H](C(CC)CC)C(=O)N(C)[C@H](C(=O)N(C)C)CC(=O)N1C [PP2345] | A (a compound having 10 or more and less than 20 is denoted as A) | A (a compound having 10 or more and less than 20 is denoted as A) |  |  | 
12 | 0.95 | CC[C@H](C)[C@@H]1NC(=O)[C@H](COC)N(C)C(=O)C[C@@H](C(=O)N(C)C)N(C)C(=O)[C@H](C2CCCC2)N(C)C(=O)C2(CC(C)(C)C2)NC(=O)[C@@H]2C[C@@H](OC(C)C)CN2C(=O)[C@H](CCc2cc(F)c(C(F)(F)F)c(F)c2)NC(=O)CN(C)C(=O)[C@H](CC2CCCCC2)N2CC/C=C\C[C@@H](C2=O)N(C)C(=O)CN(C2CC2)C1=O [PP2511] | A (a compound having 10 or more and less than 20 is denoted as A) | A (a compound having 10 or more and less than 20 is denoted as A) |  |  | 
13 | 0.41 | CCC[C@H]1C(=O)N[C@@H]([C@@H](C)CC)C(=O)N(C)CC(=O)N(C)[C@H]2C/C=C\CCN(C2=O)[C@@H](CC2CCCCC2)C(=O)N(C)CC(=O)N[C@@H](CCc2ccc(C(F)(F)F)c(OC)c2)C(=O)N2C[C@H](OCC)C[C@H]2C(=O)N(C)C2(CCC2)C(=O)N(C)[C@@H](C2CCCC2)C(=O)N(C)[C@H](C(=O)N(C)C)CC(=O)N1C [PP2336] | A (a compound having 10 or more and less than 20 is denoted as A) | A (a compound having 10 or more and less than 20 is denoted as A) |  |  | 
14 | 0.35 | CCCOC[C@H]1C(=O)N[C@@H]([C@@H](C)CC)C(=O)N(C)CC(=O)N(C)[C@H]2C/C=C\CCN(C2=O)[C@@H](CC2CCC(F)(F)CC2)C(=O)N(C)CC(=O)N[C@@H](CCc2ccc(C(F)(F)F)c(OC)c2)C(=O)N2C[C@H](OCC)C[C@H]2C(=O)N(C)C2(CCC2)C(=O)N(C)[C@@H](C2CCCC2)C(=O)N(C)[C@H](C(=O)N(C)C)CC(=O)N1C [PP2350] | A (a compound having 10 or more and less than 20 is denoted as A) | A (a compound having 10 or more and less than 20 is denoted as A) |  |  | 
15 | 0.11 | CC[C@H](C)[C@@H]1NC(=O)[C@H](COC)N(C)C(=O)C[C@@H](C(=O)N(C)C)N(C)C(=O)[C@H](C2CCCC2)N(C)C(=O)C2(CC(C)(C)C2)NC(=O)[C@@H]2C[C@@H](C)CN2C(=O)[C@H](CCc2ccc(C(F)(F)F)c(OC)c2)NC(=O)CN(C)C(=O)[C@H](Cc2ccc(C)cc2)N2CC/C=C\C[C@@H](C2=O)N(C)C(=O)CN(C)C1=O [PP2387] | A (a compound having 10 or more and less than 20 is denoted as A) | A (a compound having 10 or more and less than 20 is denoted as A) |  |  | 
